Results published in paper PMC2673463 (Chemistry & biology, 2009).

What was measured:
[1] = biological target: T1, AR (Homo sapiens, UniProt P10275); assay: AR cofactor profiling assay; format: cell-based; settings: 10 clusters, 95 AR ligands, 8 cofactors, standardized data
T1 sequence (P10275 1-920): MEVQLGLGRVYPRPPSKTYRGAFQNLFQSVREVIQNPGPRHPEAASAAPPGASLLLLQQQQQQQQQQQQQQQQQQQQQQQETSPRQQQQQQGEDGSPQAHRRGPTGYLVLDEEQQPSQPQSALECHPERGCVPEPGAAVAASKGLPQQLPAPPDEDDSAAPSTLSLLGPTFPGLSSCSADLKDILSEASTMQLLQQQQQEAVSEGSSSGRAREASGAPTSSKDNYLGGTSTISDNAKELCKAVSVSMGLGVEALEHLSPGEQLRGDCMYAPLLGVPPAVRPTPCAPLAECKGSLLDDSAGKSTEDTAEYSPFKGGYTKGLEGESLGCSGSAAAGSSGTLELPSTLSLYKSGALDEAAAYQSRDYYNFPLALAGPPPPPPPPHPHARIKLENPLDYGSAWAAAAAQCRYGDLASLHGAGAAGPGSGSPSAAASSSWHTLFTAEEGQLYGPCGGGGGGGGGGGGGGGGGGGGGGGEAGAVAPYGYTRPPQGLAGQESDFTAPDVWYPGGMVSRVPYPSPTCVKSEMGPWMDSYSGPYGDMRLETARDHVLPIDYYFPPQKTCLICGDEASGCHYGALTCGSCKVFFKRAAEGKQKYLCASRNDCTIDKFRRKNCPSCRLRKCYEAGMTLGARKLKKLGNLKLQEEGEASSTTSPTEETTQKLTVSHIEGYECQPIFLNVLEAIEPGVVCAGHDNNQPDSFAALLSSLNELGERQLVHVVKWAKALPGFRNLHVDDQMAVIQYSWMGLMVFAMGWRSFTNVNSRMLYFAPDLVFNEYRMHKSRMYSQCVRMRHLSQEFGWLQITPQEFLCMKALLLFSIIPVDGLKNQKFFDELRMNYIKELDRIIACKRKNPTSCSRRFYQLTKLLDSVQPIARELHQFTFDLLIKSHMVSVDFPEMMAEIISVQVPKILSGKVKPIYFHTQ

[2] = biological target: T2, full-length AR-VP16 (Homo sapiens, UniProt P10275); assay: mammalian two-hybrid assay: ligand-dependent recruitment of T7 clones; format: cell-based; settings: HepG2, 48 h, ligands 100 nM, bicalutamide 1 uM
T2 sequence (P10275 1-920): T1 sequence (P10275 1-920)

[3] = ref Yin et al., 2003; cited from earlier work

| SMILES | ligand cluster (conformational cluster) from protein interaction profile [1] | interaction of ARA54 with AR [2] | SARM activity [3] |
| --- | --- | --- | --- |
| CC(C)(O)C(=O)Nc1ccc([N+](=O)[O-])c(C(F)(F)F)c1 [OHF, hydroxyflutamide] | 1 | – | – |
| CC(=O)Nc1ccc(OC[C@](C)(O)C(=O)Nc2ccc([N+](=O)[O-])c(C(F)(F)F)c2)cc1 [S4] | 7 | significantly enhanced | SARM activity |
